Laboratory results taken from publication PMC10632520, “Structural flexibility of apolipoprotein E-derived arginine-rich peptides improves their cell penetration capability” (Scientific Reports, 2023).
Residues, ends and D or L forms follow the SMILES beside them.

Assay: Channel current (electrophysiological) analysis of peptide-induced pores
Type: physicochemical
Details: planar DOPC bilayer, 10 µM peptide, 100 mV; pH 7.0
Method: Electrophysiological measurements were performed using a MECA 16 TC chip with an Orbit 16 TC device (Nanion Technologies GmbH, Munich, Germany) according to the manufacturer’s instructions. The MECA 16 TC chamber was filled with 200 µL of buffer solution (150 mM KCl, 10 mM MOPS, pH 7.0); 1 µL of DOPC (lipid/n-decan, 10 mg/mL) solution was added to the chamber, and planar lipid bilayers were automatically prepared using the Orbit 16TC stirrer. The peptide was then dissolved in the chamber at 10 µM (a lipid/peptide molar ratio of ~ 6 in the chamber system), and 100 mV of voltage was applied. The channel current was monitored using the Orbit 16 TC Elements Data Reader 4 v.1.0.22. The channel current signals were detected using a 4-kHz low-pass filter at a sampling frequency of 20 kHz. Analysis of the channel signals was performed using pCLAMP ver. 10.7 (Molecular Devices, CA, USA). The data obtained in this measurement are n (number of current signals): 2081 > n > 311; N (number of experiments) > 3.

CC(=O)N[C@@H](CC(C)C)C(=O)N[C@@H](CCCNC(=N)N)C(=O)N[C@@H](CCCCN)C(=O)N[C@@H](CC(C)C)C(=O)N[C@@H](CCCNC(=N)N)C(=O)N[C@@H](CCCCN)C(=O)N[C@@H](CCCNC(=N)N)C(=O)N[C@@H](CC(C)C)C(=O)N[C@@H](CC(C)C)C(=O)N[C@@H](CCCNC(=N)N)C(=O)N[C@@H](CC(C)C)C(=O)N[C@@H](Cc1c[nH]c2ccccc12)C(=O)N[C@@H](CCCCN)C(=O)N[C@@H](CC(C)C)C(=O)N[C@@H](CCCNC(=N)N)C(=O)N[C@@H](CCCCN)C(=O)N[C@@H](CCCNC(=N)N)C(N)=O [A2-17] (Ac-LRKLRKRLLRLWKLRKR-NH2)
charge flux accompanied by spike current signal: much greater for A2-17 than that for StpA2-17 or StchA2-17
